The values that follow come from ChEMBL document CHEMBL1201862, “PubChem BioAssay data set” (2004).

What all share (assay): NCI anticancer screen, dose series, 48 h
The subject of assay [1] is ACHN.
The test system of assay [2] is BT-549.
For assay [3], the system named is CCRF-CEM.
Assay [4] has as its system HCC 2998.
Assay [5] deals with HCT-116.
Assay [6] deals with HCT-15.
In assay [7] the test system is HOP-92.
Assay [8] relates to IGROV-1.
Assay [9] deals with K562.
Assay [10] relates to MDA-MB-231.
Assay [11] has as its system NCI-H226.
For assay [12], the system named is NCI/ADR-RES.
Assay [13] relates to RPMI-8226.
For assay [14], the system named is RXF 393.
In assay [15] the test system is SF-295.
For assay [16], the system named is SN12C.
The test system of assay [17] is SNB-75.
In assay [18] the test system is SW-620.
Assay [19] has as its system UACC-257.

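Interpolation was linear, between the two tested concentrations surrounding the appropriate level; five concentrations were tested over 48 hours in 96-well plates. Here, GI50 denotes the concentration required for 50% inhibition of growth.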 Activity calls are given as the source filed them. Cut-off read from the data, not from the text of the source: active = GI50 up to about 1.1 µM and inactive = higher. Some results are limits rather than exact numbers.

For `CCc1c(-c2ccc(OC)cc2)c(=O)oc2cc(O)ccc12`, the GI50 is 27.7 µM (inactive) in [1]; 25.1 µM (inactive) in assay [2]; 27.4 µM (inactive) in assay [3]; 72.3 µM (inactive) in [4]; 36.5 µM (inactive) in assay [5]; 25.9 µM in assay [6]. The GI50 in assay [7] is 75.9 µM (inactive); in [8], 42.4 µM (inactive); in assay [9], 29.8 µM (inactive); in assay [10] it was 57.5 µM (inactive); in assay [11], 56.6 µM (inactive); in [12] it was 22.1 µM (inactive). For the same compound, the GI50 in [13] was 18.6 µM (inactive); in [14], 54.5 µM (inactive); in [15], 35.6 µM (inactive); in assay [16], 35.9 µM (inactive); in assay [17], 73.3 µM (inactive); in assay [18], 51.3 µM (inactive). In addition, in [19], the GI50 is 25.9 µM (inactive).
Turning to `COc1ccc2c(c1)CCN1CCCc3ccc(OC)cc3C21` (stereo unspecified), the GI50 in assay [1] is > 100 µM (inactive); in [2], 34 µM (inactive); in assay [3], 42.6 µM (inactive); in assay [4] it was 37.9 µM (inactive); in assay [5], 31.3 µM (inactive); in assay [6], 54.8 µM. In addition, the GI50 in [7] was 63.8 µM (inactive); in [8], 57.4 µM (inactive); in [9] it was 36 µM (inactive); in assay [10], 49.8 µM (inactive); in assay [11] it was 38.5 µM (inactive); in assay [12], 42.9 µM (inactive). Moreover, the GI50 in assay [13] was 31.6 µM (inactive); in assay [14], 41.4 µM (inactive); in assay [15], 24.6 µM (inactive); in [16] it was 50 µM (inactive); in assay [17], 16.4 µM (inactive); in assay [18] it was 76.7 µM (inactive). Besides, the GI50 in [19] was 73.8 µM (inactive).
Take `O=C(O)c1cc2c(cc1S(=O)(=O)O)C1C(C3C2C2(Cl)C(Cl)=C(Cl)C3(Cl)C2(Cl)Cl)C2(Cl)C(Cl)=C(Cl)C1(Cl)C2(Cl)Cl` (stereo unspecified): the GI50 in [1] is > 100 µM (inactive); in assay [2], 67 µM (inactive); in assay [3], 0.173 µM (active); in [4], 20.8 µM (inactive); in assay [5], 17.4 µM (inactive); in assay [6], 45 µM. Besides, the GI50 is 29.2 µM (inactive) in assay [7]; 50.4 µM (inactive) in assay [8]; 34.3 µM (inactive) in assay [9]; 24.4 µM (inactive) in assay [10]; 23.4 µM (inactive) in [11]; > 100 µM (inactive) in [12]. The GI50 in assay [13] was 32.6 µM (inactive); in assay [14], 29.2 µM (inactive); in assay [15], 23.2 µM (inactive); in assay [16] it was 8.71 µM (inactive); in assay [17], 47.6 µM (inactive); in assay [18], 37.2 µM (inactive). The GI50 in [19] is 90.2 µM (inactive).
With `COC(=O)C1=C(C(=O)Nc2cccnc2Cl)N(c2ccc(OC)cc2[N+](=O)[O-])C(c2ccc(C)cc2)=CC1c1ccc(OC)cc1OC` (stereo unspecified), the GI50 in assay [1] is 19.1 µM (inactive); in [2], 8.85 µM (inactive); in assay [3], 4.53 µM (inactive); in assay [4], 8.61 µM (inactive); in [5], 9.98 µM (inactive); in [6], 4.27 µM. Also, the GI50 in assay [7] was 31.1 µM (inactive); in [8], 5.94 µM (inactive); in [9] it was 4.67 µM (inactive); in [10] it was 17.9 µM (inactive); in [11] it was 12.9 µM (inactive); in assay [12], 17.6 µM (inactive). In addition, the GI50 is 2.37 µM (inactive) in assay [13]; 3.13 µM (inactive) in [14]; 23.2 µM (inactive) in assay [15]; 15.4 µM (inactive) in [16]; 14.2 µM (inactive) in assay [17]; 4.66 µM (inactive) in assay [18]. In addition, the GI50 in [19] was 25.8 µM (inactive).
